Experiment [1] concerns the target T1, human somatostatin receptor subtype 5 (Homo sapiens, UniProt P35346).
T1 construct: expressed in transfected cells
Nature of the experiment: cAMP assay for SST5R (inhibition of cAMP in CHO-K1 cells). Format: cell-based. The conditions noted are these: for EC50: inhibition of cAMP via human SST5 receptor, read-out: SST5 potency; for Fold selectivity for SST5 vs SST2: class symbols, SST5 receptor over SST2 receptor. The method in brief: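 CHO-K1 cells stably expressing human SSTR5 were treated 20 min at 37 °C with compounds plus 1.6 μM NKH477 in HBSS, 0.5 mM HEPES pH 7.4, 0.1% BSA, 0.2 mM IBMX. Lysate cAMP measured by HTRF against a standard curve; EC50 from cAMP-versus-concentration plots.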

Experiment [2] addresses T2, human somatostatin receptor subtype 2 (Homo sapiens, UniProt P30874).
T2 construct: expressed in transfected cells
Nature of the experiment: cAMP assay for SST2R (inhibition of cAMP in CHO-K1 cells). Format: cell-based. The conditions noted are these: Table B; inhibition of cAMP via human SST2 receptor; read-out: SST2 potency. The source says:
General overview: All five SSTR subtypes are Gi coupled G-protein coupled receptors (GPCRs) that lead to decreases in intracellular cyclic AMP (cAMP) when activated by an agonist. Therefore, measurement of intracellular cAMP levels can be used to assess whether compounds of the invention are agonists of SSTR subtypes (John Kelly, Troy Stevens, W. Joseph Thompson, and Roland Seifert, Current Protocols in Pharmacology, 2005, 2.2.1-2.2). One example of an intracellular cAMP assay is described below.
cAMP Assay Protocol for SST2R:
Four days prior to the assay, 5,000 Chinese hamster ovary cells (CHO-K1, ATCC #CCL-61) stably expressing the human somatostatin receptor subtype 2 are plated in each well of a 96-well tissue culture-treated plate in Ham's F12 growth media (ThermoFisher #10-080-CM) supplemented with 10% donor bovine serum (Gemini Bio-Products #100-506), 100 U/mL penicillin; 100 μg/mL streptomycin; 2 mM L-glutamine (Gemini Bio-Products #400-110) and 0.2 mg/mL hygromycin B (GoldBio #31282-04-9). The cells are cultured at 37° C., 5% CO2 and 95% humidity. On the day of the assay, the media is aspirated and the cells are treated with 50 μL of 1.6 μM NKH477 (Sigma #N3290) plus various dilutions of compounds of the invention in assay buffer [1× Hank's Balanced Salt Solution (ThermoFisher #SH3058802), 0.5 mM HEPES pH 7.4, 0.1% bovine serum albumin, 0.2 mM 3-Isobutyl-1-methylxanthine (IBMX, VWR #200002-790)]. The cells are incubated for 20 minutes at 37° C. […] The cells are treated with 50 μL of lysis buffer (HRTF cAMP kit, Cisbio). The lysate is transferred to 384-well plates and cAMP detection and visualization antibodies are added and incubated for 1-24 hours at room temperature. The time-resolved fluorescent signal is read with a Tecan M1000Pro multiplate reader. The intracellular cAMP concentrations are calculated by regression to a standard curve and are plotted vs. the concentration of the compounds of the invention and the EC50 of the compounds are calculated using standard methods. All data manipulations are in GraphPad Prism v6 or v7.
For orientation: cAMP levels reflect the balance of adenylyl cyclase and phosphodiesterase activity.

Like-named read-outs stand apart in the source and are kept apart here.

T2 sequence (P30874 whole entry): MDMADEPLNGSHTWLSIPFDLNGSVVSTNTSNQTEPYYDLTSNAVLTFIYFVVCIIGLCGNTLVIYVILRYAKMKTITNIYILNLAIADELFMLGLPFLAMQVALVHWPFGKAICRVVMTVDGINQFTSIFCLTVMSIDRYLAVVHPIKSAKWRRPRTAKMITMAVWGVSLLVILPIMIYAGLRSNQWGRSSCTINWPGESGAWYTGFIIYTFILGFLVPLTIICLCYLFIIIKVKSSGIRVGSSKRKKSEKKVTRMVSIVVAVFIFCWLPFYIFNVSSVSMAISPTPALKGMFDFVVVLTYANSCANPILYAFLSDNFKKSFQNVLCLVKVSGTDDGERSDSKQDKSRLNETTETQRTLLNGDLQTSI
T1 sequence (P35346 whole entry): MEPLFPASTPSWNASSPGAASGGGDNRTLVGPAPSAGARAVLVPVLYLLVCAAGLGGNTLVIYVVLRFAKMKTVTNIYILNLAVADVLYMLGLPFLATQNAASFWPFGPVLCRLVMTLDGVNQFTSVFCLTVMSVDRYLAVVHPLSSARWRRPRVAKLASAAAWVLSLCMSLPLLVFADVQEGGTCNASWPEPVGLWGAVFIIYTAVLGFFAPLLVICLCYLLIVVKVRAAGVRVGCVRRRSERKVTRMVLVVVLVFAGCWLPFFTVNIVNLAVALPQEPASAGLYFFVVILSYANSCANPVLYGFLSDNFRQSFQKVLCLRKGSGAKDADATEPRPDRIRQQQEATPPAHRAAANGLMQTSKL

As to “4-[(3S)-3-amino-3-methylpyrrolidin-1-yl]-5-(3-cyano-5-methoxyphenyl)-N-[(1S)-1-cyclopropylethyl]-6-methylpyridine-3-carboxamide [1-280]”, the values for the EC50 in experiment [1] (Table A), in experiment [1] (Table B) and in experiment [2] were less than 10 nM, less than 10 nM and 100 to 1000 nM, respectively. For the same compound, the “Fold selectivity for SST5 vs SST2” value in experiment [1] (Table B) is listed as “+++ (+++=>500)”. As for `Cc1cc(C)cc(NC(=O)c2cncc(-c3cc(C)cc(C)c3)c2N2CC[C@@H](N)C2)c1` (single isomer, unassigned) [1-2], the EC50 in experiment [1] (Table A) was 10 to 100 nM; in experiment [1] (Table B) it was 10 to 100 nM; in experiment [2] it was less than 10 nM.

With `Cc1cc(C)cc(NC(=O)c2cncc(-c3cc(C)cc(C)c3)c2N2CC[C@H](N)C2)c1` [1-1, 4-[(3S)-3-aminopyrrolidin-1-yl]-N,5-bis(3,5-dimethylphenyl)pyridine-3-carboxamide], the EC50 was less than 10 nM in experiment [1] (Table A), less than 10 nM in experiment [1] (Table B) and 10 to 100 nM in experiment [2]. In experiment [1] (Table B), the “Fold selectivity for SST5 vs SST2” value is “++ (++=100 to 499)”. `Cc1cc(C)cc(-c2cncc(C(=O)Nc3cc(F)cc(Cl)c3)c2N2CC[C@H](N)C2)c1` [1-3, 4-[(3 S)-3-aminopyrrolidin-1-yl]-N-(3-chloro-5-fluorophenyl)-5-(3,5-dimethylphenyl)pyridine-3-carboxamide]: the EC50 in experiment [1] (Table A) is less than 10 nM; in experiment [1] (Table B), less than 10 nM; in experiment [2], 100 to 1000 nM. For the same compound, the “Fold selectivity for SST5 vs SST2” value in experiment [1] (Table B) is recorded as “+ (+=10 to 99)”. Take `C[C@]1(N)CCN(c2c(C(=O)Nc3ccccc3F)cncc2-c2ccc(F)c(C#N)c2)C1` [1-4, 4-[(3S)-3-amino-3-methylpyrrolidin-1-yl]-5-(3-cyano-4-fluorophenyl)-N-(2-fluorophenyl)pyridine-3-carboxamide]: the figures for the EC50 in experiment [1] (Table A), in experiment [1] (Table B) and in experiment [2] were less than 10 nM, less than 10 nM and 100 to 1000 nM, respectively. In addition, in experiment [1] (Table B), the “Fold selectivity for SST5 vs SST2” value is on record as “++ (++=100 to 499)”. Consider `Cc1cccc2[nH]c(-c3cncc(C(=O)NC(C)CC(F)(F)F)c3N3CC[C@](C)(N)C3)nc12` (stereo partly drawn) [2-32, 4-[(3S)-3-amino-3-methylpyrrolidin-1-yl]-5-(4-methyl-1H-1,3-benzodiazol-2-yl)-N-(4,4,4-trifluorobutan-2-yl)pyridine-3-carboxamide], for which the EC50 in experiment [1] (Table A) is less than 10 nM.

`Cc1cccc2[nH]c(-c3cncc(C(=O)NC45CCC(CC4)C5)c3N3CC[C@](C)(N)C3)nc12` [2-33, 4-[(3S)-3-amino-3-methylpyrrolidin-1-yl]-N-{bicyclo[2.2.1]heptan-1-yl}-5-(4-methyl-1H-1,3-benzodiazol-2-yl)pyridine-3-carboxamide]: the EC50 in experiment [1] (Table A) was less than 10 nM. Same read-out and setting: then `Cc1cccc2[nH]c(-c3cncc(C(=O)N4CCc5ccccc54)c3N3CC[C@](C)(N)C3)nc12` [2-34, (3S)-1-[3-(2,3-dihydro-1H-indole-1-carbonyl)-5-(4-methyl-1H-1,3-benzodiazol-2-yl)pyridin-4-yl]-3-methylpyrrolidin-3-amine], with 10 to 100 nM; and `Cc1cccc2[nH]c(-c3cncc(C(=O)N4CCC5(CC5)C4)c3N3CC[C@](C)(N)C3)nc12` [2-39, (3S)-1-(3-{5-azaspiro[2.4]heptane-5-carbonyl}-5-(4-methyl-1H-1,3-benzodiazol-2-yl)pyridin-4-yl)-3-methylpyrrolidin-3-amine], with 10 to 100 nM.

For the compound `CC[C@H](NC(=O)c1cncc(-c2nc3c(C)cccc3[nH]2)c1N1CC[C@](C)(N)C1)C(F)(F)F` [2-40, 4-[(3S)-3-amino-3-methylpyrrolidin-1-yl]-5-(4-methyl-1H-1,3-benzodiazol-2-yl)-N-[(2S)-1,1,1-trifluorobutan-2-yl]pyridine-3-carboxamide], the EC50 in experiment [1] (Table A) was less than 10 nM. On the same count and under the same terms, then `Cc1cccc2[nH]c(-c3cncc(C(=O)N4CCC(C(F)(F)F)C4)c3N3CC[C@](C)(N)C3)nc12` (stereo partly drawn) [2-44, (3S)-3-methyl-1-[3-(4-methyl-1H-1,3-benzodiazol-2-yl)-5-[3-(trifluoromethyl)pyrrolidine-1-carbonyl]pyridin-4-yl]pyrrolidin-3-amine], with 10 to 100 nM. For the compound `C[C@H](NC(=O)c1ccnc(-c2cc(F)cc(F)c2)c1N1CC[C@](C)(N)C1)C1CC1` [3-1, 3-[(3S)-3-amino-3-methylpyrrolidin-1-yl]-N-[(1S)-1-cyclopropylethyl]-2-(3,5-difluorophenyl)pyridine-4-carboxamide], the EC50 in experiment [1] (Table A) lay in the range of 10 to 100 nM. The same measure, in the same setting: for `C[C@H](NC(=O)c1ccnc(-c2cc(F)cc(F)c2)c1N1CC[C@](C)(N)C1)c1ccccc1` [3-3, 3-[(3S)-3-amino-3-methylpyrrolidin-1-yl]-2-(3,5-difluorophenyl)-N-[(1S)-1-phenylethyl]pyridine-4-carboxamide] the value was 100 to 1000 nM; for `C[C@]1(N)CCN(c2c(C(=O)NC(C3CC3)C3CC3)ccnc2-c2cc(F)cc(F)c2)C1` [3-4, 3-[(3S)-3-amino-3-methylpyrrolidin-1-yl]-N-(dicyclopropylmethyl)-2-(3,5-difluorophenyl)pyridine-4-carboxamide], less than 10 nM. On the same count and under the same terms, for `C[C@]1(N)CCN(c2c(C(=O)NC34CCC(CC3)C4)ccnc2-c2cc(F)cc(F)c2)C1` [3-5, 3-[(3S)-3-amino-3-methylpyrrolidin-1-yl]-N-{bicyclo[2.2.1]heptan-1-yl}-2-(3,5-difluorophenyl)pyridine-4-carboxamide] the value was 10 to 100 nM; for `C[C@]1(N)CCN(c2c(C(=O)NC3CCCC3)ccnc2-c2cc(F)cc(F)c2)C1` [3-8, 3-[(3S)-3-amino-3-methylpyrrolidin-1-yl]-N-cyclopentyl-2-(3,5-difluorophenyl)pyridine-4-carboxamide], 10 to 100 nM. Consider `Cc1cnc(C(=O)N[C@@H](C)C2CC2)c(N2CC[C@](C)(N)C2)c1-c1cc(F)cc(F)c1` [4-2, 3-[(3S)-3-amino-3-methylpyrrolidin-1-yl]-N-[(1S)-1-cyclopropylethyl]-4-(3,5-difluorophenyl)-5-methylpyridine-2-carboxamide], for which, in experiment [1] (Table A), the EC50 was in the range of 10 to 100 nM. Consider `C[C@H](NC(=O)c1ncc(C#N)c(-c2cc(F)cc(F)c2)c1N1CC[C@](C)(N)C1)C1CC1` [4-3, 3-[(3S)-3-amino-3-methylpyrrolidin-1-yl]-5-cyano-N-[(1S)-1-cyclopropylethyl]-4-(3,5-difluorophenyl)pyridine-2-carboxamide], for which the EC50 in experiment [1] (Table A) is less than 10 nM. In the case of `COC(=O)c1cnc(C(=O)N[C@@H](C)C2CC2)c(N2CC[C@](C)(N)C2)c1-c1cc(F)cc(F)c1` [4-4, methyl 5-[(3S)-3-amino-3-methylpyrrolidin-1-yl]-6-{[(1S)-1-cyclopropylethyl]carbamoyl}-4-(3,5-difluorophenyl)pyridine-3-carboxylate], in experiment [1] (Table A), the EC50 is 10 to 100 nM. Regarding `C[C@H](NC(=O)c1ncc(C(N)=O)c(-c2cc(F)cc(F)c2)c1N1CC[C@](C)(N)C1)C1CC1` [4-5, 3-[(3S)-3-amino-3-methylpyrrolidin-1-yl]-N2-[(1S)-1-cyclopropylethyl]-4-(3,5-difluorophenyl)pyridine-2,5-dicarboxamide], in experiment [1] (Table A), the EC50 is more than 1000 nM. With “N-(adamantan-1-yl)-3-[(3S)-3-amino-3-methylpyrrolidin-1-yl]-2-(3,5-difluorophenyl)pyridine-4-carboxamide [3-7]”, the EC50 in experiment [1] (Table A) lay in the range of 10 to 100 nM.

The values above are taken from US12600709B2, “Nonpeptide somatostatin type 5 receptor agonists and uses thereof” (Crinetics Pharmaceuticals, Inc., priority 2019, dated 2026).
